In brackets after ≈: the same amount, converted by molar mass. Counter-ions that a name gives are not always drawn. Like-named read-outs stand apart in the source and are kept apart here.
What was measured:
Test in all cases: Antibacterial activity, microbroth dilution method (MIC)
[1] = test system: control Gram-negative E. coli 25922 strain; format: cell-based, Escherichia coli; conditions: for MIC: Escherichia coli
Source text: (§1) The antibacterial activity from a microbroth dilution method may be presented as the minimum inhibitory concentration (MIC in μg/mL). The MIC value is the lowest concentration of drug which prevents macroscopically visible growth under test conditions.
(§2) Antibacterial activity of test compounds against the super sensitive Gram-negative Escherichia coli (E. coli) BAS849 bacterium, the control Gram-negative E. coli 25922 strain and the Gram-positive Staphylococcus aureus (S. aureus) 29213 bacterium are shown in Table 1.

[2] = test system: Gram-positive Staphylococcus aureus (S. aureus) 29213; format: cell-based; conditions: Gram-positive S. aureus 29213; for MIC: Staphylococcus aureus
Source text: as §1, §2

[3] = test system: super sensitive Gram-negative Escherichia coli (E. coli) BAS849; format: cell-based; conditions: for MIC: Escherichia coli, read-out: MIC, E. coli BAS849
Source text: as §1, §2

[4] = super sensitive Gram-negative E. coli BAS849, microbroth dilution

| SMILES | MIC [1] | MIC [2] | MIC [3, 4] | MIC, E. coli 25922 [1] | MIC, S. aureus 29213 [2] | MIC, E. coli BAS849 [3, 4] | MIC [3] |
| --- | --- | --- | --- | --- | --- | --- | --- |
| Cn1c2c(c(O)c(C(=O)O)c1=O)CC=Cc1cc3c(ccn3C)cc1-2 [Cpd 131, 4-hydroxy-1,9-dimethyl-2-oxo-1,2,5,9-tetrahydropyrido[3′,2′:6,7]cyclohepta[1,2-f]indole-3-carboxylic acid] | 12.5 to 150 µg/mL (≈ 37.2 to 446 µM) | 3.5 to 12.5 µg/mL (≈ 10.4 to 37.2 µM) | < 1 µg/mL | – | – | – | – |
| CCN(CC)Cc1cc2cc3c(cc2n1C)CCCc1c-3[nH]c(=O)c(C(=O)O)c1O.Cl [Cpd 43, 10-((diethylamino)methyl)-4-hydroxy-9-methyl-2-oxo-1,2,5,6,7,9-hexahydropyrido[3′,2′:6,7]cyclohepta[1,2-f]indole-3-carboxylic acid hydrochloride] | 1 to 3.5 µg/mL | 3.5 to 12.5 µg/mL | < 1 µg/mL | – | – | – | – |
| CC1COc2cc(N3CCCC3)ccc2-c2[nH]c(=O)c(C(=O)O)c(O)c21 (stereo not drawn) [Cpd 83, 4-hydroxy-5-methyl-2-oxo-9-(pyrrolidin-1-yl)-1,2,5,6-tetrahydrobenz[2,3]oxepino[4,5-b]pyridine-3-carboxylic acid] | 12.5 to 150 µg/mL (≈ 35.1 to 421 µM) | 3.5 to 12.5 µg/mL (≈ 9.82 to 35.1 µM) | < 1 µg/mL | – | – | – | – |
| Cl.Cn1c(CN2CCC(O)CC2)cc2cc3c(cc21)CCCc1c-3[nH]c(=O)c(C(=O)O)c1O [Cpd 28, 4-hydroxy-10-((4-hydroxypiperidin-1-yl)methyl)-9-methyl-2-oxo-1,2,5,6,7,9-hexahydropyrido[3′,2′:6,7]cyclohepta[1,2-f]indole-3-carboxylic acid hydrochloride] | 1 to 3.5 µg/mL | 3.5 to 12.5 µg/mL | < 1 µg/mL | – | – | – | – |
| O=C(O)c1c(O)c2c([nH]c1=O)-c1ccc(N3CCCC3)cc1CCCC2 [Cpd 126, 4-hydroxy-2-oxo-10-(pyrrolidin-1-yl)-1,2,5,6,7,8-hexahydrobenzo[7,8]cycloocta[1,2-b]pyridine-3-carboxylic acid] | 12.5 to 150 µg/mL (≈ 35.3 to 423 µM) | 1 to 3.5 µg/mL (≈ 2.82 to 9.88 µM) | < 1 µg/mL | – | – | – | – |
| N[C@@H]1[C@H]2CN(c3ccc4c(c3)CCCCc3c-4[nH]c(=O)c(C(=O)O)c3O)C[C@@H]12 [Cpd 127, 10-((cis,cis)-6-amino-3-azabicyclo[3.1.0]hexan-3-yl)-4-hydroxy-2-oxo-1,2,5,6,7,8-hexahydrobenzo[7,8]cycloocta[1,2-b]pyridine-3-carboxylic acid hydrochloride] | < 1 µg/mL | 3.5 to 12.5 µg/mL | < 1 µg/mL | – | – | – | – |
| Cn1ccc2cc3c(c(F)c21)CCCc1c-3[nH]c(=O)c(C(=O)O)c1O [Cpd 18, 8-fluoro-4-hydroxy-9-methyl-2-oxo-1,2,5,6,7,9-hexahydropyrido[3′,2′:6,7]cyclohepta[1,2-f]indole-3-carboxylic acid] | 3.5 to 12.5 µg/mL (≈ 10.2 to 36.5 µM) | 1 to 3.5 µg/mL (≈ 2.92 to 10.2 µM) | < 1 µg/mL | – | – | – | – |
| CN(C)CCNCc1cc2cc3c(cc2n1C)OCCc1c-3[nH]c(=O)c(C(=O)O)c1O.Cl.Cl [Cpd 182, 10-(((2-(dimethylamino)ethyl)amino)methyl)-4-hydroxy-9-methyl-2-oxo-2,5,6,9-tetrahydro-1H-pyrido[2′,3′:4,5]oxepino[3,2-f]indole-3-carboxylic acid dihydrochloride] | 12.5 to 150 µg/mL | 12.5 to 150 µg/mL | 1 to 3.5 µg/mL | – | – | – | – |
| CCNCc1cc2cc3c(cc2n1C)CCCc1c-3[nH]c(=O)c(C(=O)O)c1O.Cl [Cpd 25, 10-((ethylamino)methyl)-4-hydroxy-9-methyl-2-oxo-1,2,5,6,7,9-hexahydropyrido[3′,2′:6,7]cyclohepta[1,2-f]indole-3-carboxylic acid hydrochloride] | < 1 µg/mL | 3.5 to 12.5 µg/mL | < 1 µg/mL | – | – | – | – |
| CCNCc1cc2cc3c(cc2n1C)CCC(C)c1c-3[nH]c(=O)c(C(=O)O)c1O.Cl (stereo not drawn) [Cpd 67, 10-((ethylamino)methyl)-4-hydroxy-5,9-dimethyl-2-oxo-1,2,5,6,7,9-hexahydropyrido[3′,2′:6,7]cyclohepta[1,2-f]indole-3-carboxylic acid hydrochloride] | 1 to 3.5 µg/mL | 12.5 to 150 µg/mL | < 1 µg/mL | – | – | – | – |
| Cn1ccc2cc3c(cc21)C=CCc1c-3[nH]c(=O)c(C(=O)O)c1O [Cpd 16, 4-hydroxy-9-methyl-2-oxo-1,2,5,9-tetrahydropyrido[3′,2′:6,7]cyclohepta[1,2-f]indole-3-carboxylic acid] | 1 to 3.5 µg/mL (≈ 3.1 to 10.9 µM) | 1 to 3.5 µg/mL (≈ 3.1 to 10.9 µM) | < 1 µg/mL | – | – | – | – |
| CNCc1cc2cc3c(cc2n1C)NCCc1c-3[nH]c(=O)c(C(=O)O)c1O.Cl [Cpd 99, 4-hydroxy-9-methyl-10-((methylamino)methyl)-2-oxo-1,2,5,6,7,9-hexahydropyrido[2′,3′:4,5]azepino[3,2-f]indole-3-carboxylic acid hydrochloride] | 12.5 to 150 µg/mL | 12.5 to 150 µg/mL | 1 to 3.5 µg/mL | – | – | – | – |
| CCCNc1ccc2c(c1)CCCCc1c-2[nH]c(=O)c(C(=O)O)c1O [Cpd 128, 4-hydroxy-2-oxo-10-(propylamino)-1,2,5,6,7,8-hexahydrobenzo[7,8]cycloocta[1,2-b]pyridine-3-carboxylic acid] | 12.5 to 150 µg/mL (≈ 36.5 to 438 µM) | 3.5 to 12.5 µg/mL (≈ 10.2 to 36.5 µM) | 1 to 3.5 µg/mL (≈ 2.92 to 10.2 µM) | – | – | – | – |
| CN1CCC2CN(Cc3cc4cc5c(cc4n3C)CCCc3c-5[nH]c(=O)c(C(=O)O)c3O)CC21.Cl.Cl (stereo not drawn) [Cpd 162, 4-hydroxy-9-methyl-10-((1-methylhexahydropyrrolo[3,4-b]pyrrol-5(1H)-yl)methyl)-2-oxo-1,2,5,6,7,9-hexahydropyrido[3′,2′:6,7]cyclohepta[1,2-f]indole-3-carboxylic acid dihydrochloride] | 3.5 to 12.5 µg/mL | 12.5 to 150 µg/mL | < 1 µg/mL | – | – | – | – |
| CNCc1cc2cc3c(cc2n1C)C=CCc1c-3[nH]c(=O)c(C(=O)O)c1O.Cl [Cpd 68, 4-hydroxy-9-methyl-10-((methylamino)methyl)-2-oxo-1,2,5,9-tetrahydropyrido[3′,2′:6,7]cyclohepta[1,2-f]indole-3-carboxylic acid hydrochloride] | < 1 µg/mL | 3.5 to 12.5 µg/mL | < 1 µg/mL | – | – | – | – |
| NC1C2CN(c3ccc4c(c3)C(O)CCc3c-4[nH]c(=O)c(C(=O)O)c3O)CC12.O=C(O)C(F)(F)F (stereo not drawn) [Cpd 14, 9-((cis,cis)-6-amino-3-azabicyclo[3.1.0]hexan-3-yl)-4,7-dihydroxy-2-oxo-2,5,6,7-tetrahydro-1H-benzo[6,7]cyclohepta[1,2-b]pyridine-3-carboxylic acid trifluoroacetate salt] | – | – | – | * (an MIC value between >12.5 μg/mL and ≦150 μg/mL) | * (an MIC value between >12.5 μg/mL and ≦150 μg/mL) | * (an MIC value between >12.5 μg/mL and ≦150 μg/mL) | – |
| COCC(C)NCc1cc2cc3c(cc2n1C)CCCc1c-3[nH]c(=O)c(C(=O)O)c1O.Cl (stereo not drawn) [Cpd 150, 4-hydroxy-10-(((1-methoxypropan-2-yl)amino)methyl)-9-methyl-2-oxo-1,2,5,6,7,9-hexahydropyrido[3′,2′:6,7]cyclohepta[1,2-f]indole-3-carboxylic acid hydrochloride] | 1 to 3.5 µg/mL | 3.5 to 12.5 µg/mL | < 1 µg/mL | – | – | – | – |
| CCNCc1cc2cc3c(cc2n1C)CCCCc1c-3[nH]c(=O)c(C(=O)O)c1O.Cl [Cpd 59, 11-((ethylamino)methyl)-4-hydroxy-10-methyl-2-oxo-2,5,6,7,8,10-hexahydro-1H-pyrido[3′,2′:7,8]cycloocta[1,2-f]indole-3-carboxylic acid hydrochloride] | < 1 µg/mL | 3.5 to 12.5 µg/mL | < 1 µg/mL | – | – | – | – |
| CNC1CCN(c2ccc3c(c2)CCCc2c-3[nH]c(=O)c(C(=O)O)c2O)C1.Cl (stereo not drawn) [Cpd 8, 4-hydroxy-9-(3-(methylamino)pyrrolidin-1-yl)-2-oxo-2,5,6,7-tetrahydro-1H-benzo[6,7]cyclohepta[1,2-b]pyridine-3-carboxylic acid hydrochloride] | 3.5 to 12.5 µg/mL | 12.5 to 150 µg/mL | 1 to 3.5 µg/mL | – | – | – | – |
| O=C(O)c1c(O)c2c([nH]c1=O)-c1ccc(N3C[C@@H]4[C@H](C3)[C@H]4N(Cc3ccccc3)Cc3ccccc3)cc1OCC2 [Cpd 79, 9-((cis,cis)-6-(dibenzylamino)-3-azabicyclo[3.1.0]hexan-3-yl)-4-hydroxy-2-oxo-1,2,5,6-tetrahydrobenzo[2,3]oxepino[4,5-b]pyridine-3-carboxylic acid trifluoroacetate] | 12.5 to 150 µg/mL | 12.5 to 150 µg/mL | – | – | – | – | 12.5 to 150 µg/mL |
| CCNc1ccc2c(c1)CCCCc1c-2[nH]c(=O)c(C(=O)O)c1O [Cpd 129, 10-(ethylamino)-4-hydroxy-2-oxo-1,2,5,6,7,8-hexahydrobenzo[7,8]cycloocta[1,2-b]pyridine-3-carboxylic acid] | 12.5 to 150 µg/mL (≈ 38.1 to 457 µM) | 3.5 to 12.5 µg/mL (≈ 10.7 to 38.1 µM) | 1 to 3.5 µg/mL (≈ 3.05 to 10.7 µM) | – | – | – | – |
| CCCNCc1cc2cc3c(cc2n1C)CCCc1c-3[nH]c(=O)c(C(=O)O)c1O.Cl [Cpd 44, 4-hydroxy-9-methyl-2-oxo-10-((propylamino)methyl)-1,2,5,6,7,9-hexahydropyrido[3′,2′:6,7]cyclohepta[1,2-f]indole-3-carboxylic acid hydrochloride] | < 1 µg/mL | 3.5 to 12.5 µg/mL | < 1 µg/mL | – | – | – | – |
| CN(Cc1ccccc1)[C@H]1[C@@H]2CN(c3ccc4c(c3)CCCc3c-4[nH]c(=O)c(C(=O)O)c3O)C[C@@H]21 [Cpd 10, 9-((cis,cis)-6-(benzyl(methyl)amino)-3-azabicyclo[3.1.0]hexan-3-yl)-4-hydroxy-2-oxo-2,5,6,7-tetrahydro-1H-benzo[6,7]cyclohepta[1,2-b]pyridine-3-carboxylic acid hydrochloride] | 12.5 to 150 µg/mL | 1 to 3.5 µg/mL | 3.5 to 12.5 µg/mL | – | – | – | – |
| CC1Cc2cc(N3CCCC3)ccc2-c2[nH]c(=O)c(C(=O)O)c(O)c21 (stereo not drawn) [Cpd 107, 4-hydroxy-5-methyl-2-oxo-8-(pyrrolidin-1-yl)-1,2,5,6-tetrahydrobenzo[h]quinoline-3-carboxylic acid] | 12.5 to 150 µg/mL (≈ 36.7 to 441 µM) | 3.5 to 12.5 µg/mL (≈ 10.3 to 36.7 µM) | < 1 µg/mL | – | – | – | – |

— patent publication US20150038438A1, “ANTIBACTERIAL COMPOUNDS AND METHODS FOR USE” (PTC THERAPEUTICS, INC., priority 2011, published 2015)
